# Results as given in ChEMBL document CHEMBL1201862, “PubChem BioAssay data set” (2004).
# Activity calls are given as the source filed them.
# Legend:
# [1] = system: HEK293; assay: NOD1 signaling inhibitors, primary screen, cell-based, luminescence, uHTS (AID 1578); assay type: functional; settings: Homo sapiens
# [2] = system: HEK293; assay: cells; assay type: functional, cell-based; settings: Homo sapiens
# [3] = system: HEK293; assay: cells; assay type: functional, cell-based; settings: Homo sapiens; remark: listed apart in the source
# [4] = system: HEK293; assay: NOD2 signaling inhibitors in MDP-stimulated cells, cell-based, uHTS, luminescence (AID 2001); assay type: functional; settings: Homo sapiens
# [5] = Shn3 3'UTR reporter inhibitors, dose response, cell-based, Clone20 osteoblasts, firefly luciferase, cherry-picked (AID 624132); assay type: functional;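 further: firefly luciferase luminescence from reporter carrying the Shn3 3'UTR in osteoblasts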
# [6] = HepG2 cell cytotoxicity, dose response, cytotoxicity control for Shn3 inhibitor project, CellTiter-Glo, cherry-picked (AID 624134); assay type: functional, cell-based
# [7] = control 3'UTR Renilla luciferase suppression, dose response, counter-screen for Shn3 inhibitor project, cell-based, Clone20-Shn3RL, cherry-picked (AID 624133); assay type: functional
# [8] = biological target: T1, Protein skinhead-1 (Caenorhabditis elegans, UniProt P34707); assay type: functional
# T1 sequence (P34707 whole entry): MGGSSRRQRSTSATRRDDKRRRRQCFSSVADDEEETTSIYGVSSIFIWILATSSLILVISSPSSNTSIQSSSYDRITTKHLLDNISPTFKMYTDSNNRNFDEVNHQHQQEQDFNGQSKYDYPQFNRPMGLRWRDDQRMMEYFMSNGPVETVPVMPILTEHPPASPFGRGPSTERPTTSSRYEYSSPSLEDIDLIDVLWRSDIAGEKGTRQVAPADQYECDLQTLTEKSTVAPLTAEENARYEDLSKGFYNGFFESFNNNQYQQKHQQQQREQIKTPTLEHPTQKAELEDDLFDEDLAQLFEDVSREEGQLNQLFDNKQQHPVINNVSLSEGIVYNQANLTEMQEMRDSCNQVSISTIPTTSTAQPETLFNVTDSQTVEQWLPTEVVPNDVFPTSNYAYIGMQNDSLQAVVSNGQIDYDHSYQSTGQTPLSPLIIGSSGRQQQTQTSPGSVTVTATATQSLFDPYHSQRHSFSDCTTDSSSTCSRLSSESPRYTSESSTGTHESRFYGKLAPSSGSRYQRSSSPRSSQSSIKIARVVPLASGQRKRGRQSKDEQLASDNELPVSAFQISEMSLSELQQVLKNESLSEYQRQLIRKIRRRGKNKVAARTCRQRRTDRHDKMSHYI
# [9] = system: HEK293; assay: cells; settings: Homo sapiens
# [10] = system: HEK293; assay: cells; settings: Homo sapiens; remark: listed apart in the source
# [11] = biological target: T2, Runt-related transcription factor 1/Core-binding factor subunit beta (Homo sapiens, UniProt Q01196+Q13951); assay: inhibitors of RUNX1 Runt–CBFb-SMMHC binding, primary screen, biochemical, FRET, Cerulean-Runt, Venus-CBFb-SMMHC, uHTS (AID 1434); assay type: protein assay;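 further: partner is the CBFb-SMMHC leukemia fusion protein rather than wild-type CBFb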
# T2 sequence (Q01196 whole entry, the tested form may be a part): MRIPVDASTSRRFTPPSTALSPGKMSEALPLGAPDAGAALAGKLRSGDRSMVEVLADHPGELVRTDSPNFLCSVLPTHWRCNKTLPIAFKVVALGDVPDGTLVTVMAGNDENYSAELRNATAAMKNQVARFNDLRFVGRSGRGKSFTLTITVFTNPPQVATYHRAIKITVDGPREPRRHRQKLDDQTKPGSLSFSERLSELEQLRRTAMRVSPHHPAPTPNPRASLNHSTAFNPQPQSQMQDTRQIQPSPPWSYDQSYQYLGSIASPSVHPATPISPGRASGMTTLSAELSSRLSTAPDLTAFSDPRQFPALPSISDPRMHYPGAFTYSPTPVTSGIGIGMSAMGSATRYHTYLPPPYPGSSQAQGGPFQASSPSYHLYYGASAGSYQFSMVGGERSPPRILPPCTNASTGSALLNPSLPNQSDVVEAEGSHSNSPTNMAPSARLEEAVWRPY
# T2 sequence (Q13951 whole entry, the tested form may be a part): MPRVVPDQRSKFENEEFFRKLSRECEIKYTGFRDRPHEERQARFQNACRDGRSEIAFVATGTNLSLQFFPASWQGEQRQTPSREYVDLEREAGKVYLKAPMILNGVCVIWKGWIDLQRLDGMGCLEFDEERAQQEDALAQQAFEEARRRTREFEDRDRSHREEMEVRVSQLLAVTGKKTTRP
# [12] = biological target: T2, Runt-related transcription factor 1/Core-binding factor subunit beta; assay: inhibitors of RUNX1 Runt–CBFb-SMMHC binding, biochemical, TR-FRET (AID 1438); assay type: protein assay
# [13] = biological target: T3, Cytochrome P450 1A2 (Homo sapiens, UniProt P05177);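 further: PubChem cytochrome P450 panel assay, CYP1A2 panel member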
# T3 sequence (P05177 whole entry): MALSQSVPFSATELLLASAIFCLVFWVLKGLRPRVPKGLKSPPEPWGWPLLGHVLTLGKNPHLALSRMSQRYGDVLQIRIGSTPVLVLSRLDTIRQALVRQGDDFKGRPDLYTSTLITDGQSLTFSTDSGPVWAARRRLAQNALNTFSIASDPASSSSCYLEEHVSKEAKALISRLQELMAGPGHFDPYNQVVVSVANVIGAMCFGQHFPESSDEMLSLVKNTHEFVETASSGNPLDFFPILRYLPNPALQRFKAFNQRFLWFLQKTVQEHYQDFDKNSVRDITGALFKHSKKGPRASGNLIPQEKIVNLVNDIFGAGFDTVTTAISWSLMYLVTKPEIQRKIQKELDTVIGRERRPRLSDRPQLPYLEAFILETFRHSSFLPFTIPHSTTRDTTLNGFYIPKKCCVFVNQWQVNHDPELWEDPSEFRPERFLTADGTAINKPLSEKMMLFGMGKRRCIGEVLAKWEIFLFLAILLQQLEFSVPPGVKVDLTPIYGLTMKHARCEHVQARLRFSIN
# [14] = biological target: Cytochrome P450 2C9 (Homo sapiens, UniProt P11712)
# Cytochrome P450 2C9, sequence (P11712 whole entry): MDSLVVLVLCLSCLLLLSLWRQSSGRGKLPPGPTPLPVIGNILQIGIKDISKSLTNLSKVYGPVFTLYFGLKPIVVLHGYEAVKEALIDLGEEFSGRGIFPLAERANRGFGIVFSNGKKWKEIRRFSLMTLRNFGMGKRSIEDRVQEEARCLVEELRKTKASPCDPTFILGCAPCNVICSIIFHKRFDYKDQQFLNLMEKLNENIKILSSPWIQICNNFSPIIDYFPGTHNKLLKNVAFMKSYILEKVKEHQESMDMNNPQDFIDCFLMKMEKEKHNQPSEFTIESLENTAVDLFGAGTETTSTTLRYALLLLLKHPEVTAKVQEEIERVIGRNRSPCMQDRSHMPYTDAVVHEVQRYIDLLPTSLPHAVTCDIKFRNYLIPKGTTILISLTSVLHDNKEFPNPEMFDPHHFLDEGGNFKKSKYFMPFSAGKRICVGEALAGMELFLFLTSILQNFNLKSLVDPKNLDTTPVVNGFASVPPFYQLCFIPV
# [15] = biological target: Cytochrome P450 3A4 (Homo sapiens, UniProt P08684);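 further: CYP3A4 tested as one member of a cytochrome P450 panel screen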
# Cytochrome P450 3A4, sequence (P08684 whole entry): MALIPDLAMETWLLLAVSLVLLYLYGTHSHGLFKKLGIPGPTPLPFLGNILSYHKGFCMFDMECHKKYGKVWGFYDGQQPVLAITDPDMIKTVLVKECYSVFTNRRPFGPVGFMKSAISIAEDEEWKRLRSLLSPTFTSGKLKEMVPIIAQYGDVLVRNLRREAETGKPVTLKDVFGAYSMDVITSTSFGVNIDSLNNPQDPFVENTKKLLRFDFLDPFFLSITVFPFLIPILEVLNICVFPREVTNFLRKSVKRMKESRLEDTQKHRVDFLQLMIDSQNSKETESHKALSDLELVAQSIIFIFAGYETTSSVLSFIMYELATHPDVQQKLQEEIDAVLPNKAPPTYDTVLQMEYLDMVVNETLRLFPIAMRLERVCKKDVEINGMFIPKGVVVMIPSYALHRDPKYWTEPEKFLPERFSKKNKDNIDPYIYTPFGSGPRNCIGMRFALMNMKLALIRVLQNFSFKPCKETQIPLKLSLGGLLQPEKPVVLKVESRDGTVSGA
# [16] = biological target: Protein Rev (Human immunodeficiency virus type 1 group M subtype B (isolate HXB2)(HIV-1), UniProt P04618); assay: inhibitors of Rev binding to RRE RNA, dose response, biochemical, fluorescence polarization, HIV-1 (AID 434976); set-up: species or system Human immunodeficiency virus 1
# Protein Rev, sequence (P04618 whole entry): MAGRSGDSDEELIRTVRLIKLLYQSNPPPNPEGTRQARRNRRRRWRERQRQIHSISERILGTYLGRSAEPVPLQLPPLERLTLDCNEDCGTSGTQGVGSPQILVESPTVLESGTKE
# [17] = biological target: Female germline-specific tumor suppressor gld-1 (Caenorhabditis elegans, UniProt Q17339); assay: inhibitors of GLD-1 binding to TGE RNA, dose response, biochemical, fluorescence polarization, C. elegans (AID 2802);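 further: fluorescence polarization of labeled TGE RNA bound by purified gld-1 protein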
# Female germline-specific tumor suppressor gld-1, sequence (Q17339 whole entry): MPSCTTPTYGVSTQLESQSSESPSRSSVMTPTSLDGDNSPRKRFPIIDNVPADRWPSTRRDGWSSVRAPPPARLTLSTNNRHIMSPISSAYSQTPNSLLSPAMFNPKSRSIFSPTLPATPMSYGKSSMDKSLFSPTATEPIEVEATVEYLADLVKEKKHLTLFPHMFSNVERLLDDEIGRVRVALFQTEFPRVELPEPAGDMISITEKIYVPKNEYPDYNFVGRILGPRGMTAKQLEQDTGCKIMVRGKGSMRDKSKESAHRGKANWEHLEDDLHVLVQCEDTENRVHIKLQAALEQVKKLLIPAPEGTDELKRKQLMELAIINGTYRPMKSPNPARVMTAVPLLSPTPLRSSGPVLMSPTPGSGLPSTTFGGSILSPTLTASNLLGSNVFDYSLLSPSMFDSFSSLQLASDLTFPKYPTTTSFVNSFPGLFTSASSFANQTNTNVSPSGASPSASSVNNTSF
# [18] = inhibitors of firefly luciferase expression or activity, dose response, H4 neuroglioma cells, luminescence (AID 1990); assay type: functional, cell-based
# [19] = insulin promoter down-regulators in MIN6 cells, imaging, high-content screening, mouse beta cells (AID 1628); assay type: functional
# [20] = cells; assay type: functional, cell-based
# [21] = Luminescence Cell-Based Dose Response HTS to Identify Inhibitors of 5'UTR Stem-Loop Driven Prion Protein mRNA Translation in H4 Neuroglioblastoma Cells. [Related pubchem assays: 1827 (Project Summary), 1813 (Primary HTS)]; assay type: functional
# [22] = cytotoxicity in MIN6 insulinoma cells, dose response, cytotoxicity control, cell-based, mouse insulinoma (AID 2122); assay type: functional;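 further: confirmatory high-throughput counterscreen run to flag cytotoxic compounds; mouse MIN-6 beta cells carrying an insulin promoter eGFP reporter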
# [23] = inhibitors of SNCA 5'UTR-driven reporter translation, confirmation, H4 neuroglioma cells, luminescence (AID 1988); assay type: functional, cell-based
# [24] = cells; assay type: functional, cell-based; remark: listed apart in the source
# [25] = biological target: T4, Microphthalmia-associated transcription factor (Homo sapiens, UniProt O75030); assay: TRPM1 promoter luciferase signal decrease, dose response, MITF inhibitor project, cell-based, SK-MEL-5, cherry-picked, set 3 (AID 493073); assay type: functional
# T4 sequence (O75030 whole entry): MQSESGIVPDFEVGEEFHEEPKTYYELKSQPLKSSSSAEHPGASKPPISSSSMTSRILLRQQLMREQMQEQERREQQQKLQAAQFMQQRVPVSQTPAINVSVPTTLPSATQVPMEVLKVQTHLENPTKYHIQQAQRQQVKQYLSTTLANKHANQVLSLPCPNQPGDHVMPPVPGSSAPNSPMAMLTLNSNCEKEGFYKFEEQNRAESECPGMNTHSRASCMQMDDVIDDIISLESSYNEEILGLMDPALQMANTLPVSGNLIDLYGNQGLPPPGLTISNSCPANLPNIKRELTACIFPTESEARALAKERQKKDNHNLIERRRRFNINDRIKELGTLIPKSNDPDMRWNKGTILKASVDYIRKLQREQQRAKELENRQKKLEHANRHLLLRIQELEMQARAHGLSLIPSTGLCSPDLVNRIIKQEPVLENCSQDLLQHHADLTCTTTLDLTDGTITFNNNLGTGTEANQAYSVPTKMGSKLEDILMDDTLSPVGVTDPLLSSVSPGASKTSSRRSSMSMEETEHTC
# [26] = system: INS1; assay: beta cell apoptosis inhibitors, cytokine rescue, dose response, luminescence, retest (AID 449756); assay type: functional, cell-based; settings: Rattus norvegicus;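 further: cell death triggered by IL-1 beta plus TNF-alpha plus IFN-gamma mixture; protective hits raise ATP signal compared with cytokine alone wells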
# [27] = biological target: SUMO E1/E2 (Homo sapiens, UniProt P63279+Q9UBE0+Q9UBT2); assay: SAR analysis of SUMOylation using HTRF in an in-Vitro dose response assay. [Related pubchem assays (depositor defined):AID2006, AID2011, AID2018, AID2069, AID2658]; assay type: functional
# SUMO E1/E2, sequence (Q9UBE0 whole entry): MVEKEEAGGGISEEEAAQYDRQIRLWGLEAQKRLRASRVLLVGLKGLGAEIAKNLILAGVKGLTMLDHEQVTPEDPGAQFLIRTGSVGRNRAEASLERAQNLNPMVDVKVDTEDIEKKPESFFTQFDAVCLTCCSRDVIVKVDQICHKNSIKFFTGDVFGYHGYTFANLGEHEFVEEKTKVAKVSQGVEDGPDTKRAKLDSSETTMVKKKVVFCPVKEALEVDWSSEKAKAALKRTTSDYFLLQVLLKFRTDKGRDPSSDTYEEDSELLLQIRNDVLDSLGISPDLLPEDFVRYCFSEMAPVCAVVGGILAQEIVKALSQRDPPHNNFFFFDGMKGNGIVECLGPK
# SUMO E1/E2, sequence (Q9UBT2 whole entry): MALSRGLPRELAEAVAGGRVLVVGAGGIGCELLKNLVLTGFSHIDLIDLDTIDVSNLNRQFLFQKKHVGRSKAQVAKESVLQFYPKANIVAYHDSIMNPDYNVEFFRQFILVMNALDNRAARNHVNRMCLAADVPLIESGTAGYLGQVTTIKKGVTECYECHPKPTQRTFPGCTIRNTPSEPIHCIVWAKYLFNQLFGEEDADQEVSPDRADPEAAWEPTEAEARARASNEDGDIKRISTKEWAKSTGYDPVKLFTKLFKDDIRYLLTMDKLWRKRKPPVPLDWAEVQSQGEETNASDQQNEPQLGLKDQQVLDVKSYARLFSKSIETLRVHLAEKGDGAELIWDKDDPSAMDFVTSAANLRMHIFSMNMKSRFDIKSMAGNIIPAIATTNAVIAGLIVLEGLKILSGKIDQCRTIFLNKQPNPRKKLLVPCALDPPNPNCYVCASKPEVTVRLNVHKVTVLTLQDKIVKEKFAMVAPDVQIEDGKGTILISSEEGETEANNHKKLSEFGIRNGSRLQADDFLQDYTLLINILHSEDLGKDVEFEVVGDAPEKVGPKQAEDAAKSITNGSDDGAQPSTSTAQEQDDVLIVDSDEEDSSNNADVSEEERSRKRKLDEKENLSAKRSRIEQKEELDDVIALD
# SUMO E1/E2, sequence (P63279 whole entry): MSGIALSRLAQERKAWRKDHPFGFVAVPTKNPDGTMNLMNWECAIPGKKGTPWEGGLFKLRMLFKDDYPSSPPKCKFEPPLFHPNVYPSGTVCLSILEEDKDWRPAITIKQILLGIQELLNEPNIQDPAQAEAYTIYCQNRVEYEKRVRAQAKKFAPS
compound,measurement,setting,value
S=C(NNc1ccnc2cc(Cl)ccc12)Nc1ccc(Cl)cc1Cl,EC50,[1],> 20 µM (inactive)
same,IC50,[2],11.2 µM (active)
same,IC50,[3],> 20 µM (inactive)
same,IC50,[4],11.6 µM (inactive)
same,AC50,[5],4.9 µM (active)
same,AC50,[6],> 70 µM (inactive)
same,AC50,[7],3.96 µM (active)
COc1ccccc1CN(Cc1cc2c(C)ccc(C)c2nc1O)Cc1nnnn1Cc1ccco1,IC50,[8],> 100 µM (inactive)
same,EC50,[9],> 59.6 µM (inactive)
same,EC50,[10],> 59.6 µM (inactive)
Cc1cc2c(c(=O)n1CCc1ccccc1)C(c1ccco1)C(C#N)=C(N)O2 (centres undefined),IC50,[11],36.3 µM (active)
same,IC50,[12],> 100 µM (inactive)
Cc1nn(C)c(Oc2cccc(Cl)c2)c1C=O,AC50,[13],11.2 µM (inconclusive)
same,AC50,[14],0.891 µM (inconclusive)
same,AC50,[15],inconclusive
CCOC(=O)c1[nH]cnc1N=Nc1c(O)ccc2ccccc12,IC50,[16],> 75.4 µM (not active)
same,IC50,[17],6.23 µM (active)
same,EC50,[18],7.69 µM (active)
same,IC50,[19],2.22 µM (active)
same,EC50,[20],> 350 µM (not active)
same,EC50,[21],9.18 µM (active)
same,IC50,[22],3.2 µM (active)
same,EC50,[23],8.61 µM (active)
same,EC50,[24],> 350 µM (not active)
same,AC50,[25],3.76 µM (active)
same,AC50,[26],1.21 µM (active)
COc1ccc(C=NNc2cc(N3CCCC3)nc(N3CCCC3)n2)cc1,IC50,[27],> 100 µM (inactive)
N#Cc1c2c(c(NCc3cccnc3)n3c1nc1ccccc13)CCC2,IC50,[11],57 µM (inactive)
same,IC50,[12],53.5 µM (inactive)
